ChEMBL document CHEMBL1201862, “PubChem BioAssay data set” (2004)
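The compound was tested at five concentrations on cells cultured in 96-well plates, with a 48-hour exposure period. The concentration for 50% growth inhibition is given as GI50.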 Activity calls are given as the source filed them. Rule as the data show it: active = GI50 up to about 1.1 µM and inactive = higher.

Assays:
Experiment in all cases: NCI tumour cell line growth inhibition, 48 h
[1] = test system: SK-MEL-5
[2] = test system: SW-620
[3] = test system: HOP-62
[4] = test system: NCI/ADR-RES
[5] = test system: OVCAR-3
[6] = test system: HCT-116
[7] = test system: MDA-MB-231
[8] = test system: HCT-15
[9] = test system: RPMI-8226
[10] = test system: DU-145
[11] = test system: SR
[12] = test system: OVCAR-8
[13] = test system: T47D
[14] = test system: IGROV-1
[15] = test system: SNB-75
[16] = test system: HT-29
[17] = test system: HL-60

Measured: GI50

CC(C)(C)c1ccc(O)c(CN(Cc2cc(C(C)(C)C)ccc2O)c2ccccc2)c1
18.3 µM: [8]
inactive: [1] 15.1 µM | [2] 18.5 µM | [3] 20.8 µM | [4] 19.1 µM | [5] 15.6 µM | [6] 19.4 µM | [7] 16.9 µM | [9] 16.7 µM | [10] 19.1 µM | [11] 16 µM | [12] 19.1 µM | [13] 15.8 µM | [14] 21.1 µM | [15] 18.7 µM | [16] 18.3 µM

O=C1NC(=O)C2=C1CCC2O (stereo not drawn)
inactive: [17] > 100 µM | [2] > 100 µM | [3] > 100 µM | [4] > 100 µM | [5] > 100 µM | [6] > 100 µM | [7] > 100 µM | [9] > 100 µM | [10] > 100 µM | [11] > 100 µM | [12] > 100 µM | [13] > 100 µM | [14] > 100 µM | [15] > 100 µM | [16] > 100 µM
> 100 µM: [8]

CCOC(=O)C1(Cc2ccc3c(c2)CCC3)Cc2cc3c(cc2C1)CCC3
32 µM: [8]
inactive: [17] > 100 µM | [2] 23.9 µM | [3] 32.9 µM | [4] 78.5 µM | [5] 32.4 µM | [6] 25.5 µM | [7] 28.1 µM | [9] 14.6 µM | [10] 53 µM | [11] 23.9 µM | [12] 42.5 µM | [13] 17.7 µM | [14] 46.8 µM | [15] 75.5 µM | [16] 6.46 µM

Cc1ccc(S(=O)(=O)N(CCNC(=O)c2cccc(O)c2O)c2cc3c4c(c2)Oc2cccc5c2C4(C)c2c(cccc2O3)O5)cc1
> 100 µM: [8]
inactive: [1] 22.1 µM | [2] 14.6 µM | [3] 55.6 µM | [4] 2.54 µM | [5] 6.52 µM | [6] 28.8 µM | [7] 21.7 µM | [9] > 100 µM | [10] > 100 µM | [11] 14.6 µM | [12] > 100 µM | [13] 6.17 µM | [14] 5.93 µM | [15] 10.9 µM | [16] > 100 µM

CCN(CCO)CC1COc2ccccc2O1 (stereo not drawn)
> 100 µM: [8]
inactive: [1] > 100 µM | [17] > 100 µM | [3] > 100 µM | [4] > 100 µM | [5] > 100 µM | [6] > 100 µM | [7] > 100 µM | [10] > 100 µM | [11] > 100 µM | [12] > 100 µM | [13] > 100 µM | [14] > 100 µM | [16] > 100 µM

CC(=O)N1C(=O)c2cc3ccccc3cc21
inactive: [1] > 100 µM | [17] > 100 µM | [2] > 100 µM | [3] 63.5 µM | [4] > 100 µM | [6] 61.4 µM | [7] > 100 µM | [9] > 100 µM | [10] > 100 µM | [11] > 100 µM | [12] > 100 µM | [13] > 100 µM | [14] 38.8 µM | [15] 92.5 µM
90.2 µM: [8]

NC12c3c4cccc3Oc3cccc(c31)Oc1cccc(c12)O4
> 50 µM: [8]
inactive: [17] 18.2 µM | [2] > 50 µM | [3] > 50 µM | [4] > 50 µM | [5] > 50 µM | [6] > 50 µM | [7] > 50 µM | [9] > 50 µM | [10] > 50 µM | [11] > 50 µM | [12] > 50 µM | [13] > 50 µM | [14] > 50 µM | [15] > 50 µM | [16] > 50 µM

CCOC(=O)[C@@H]1ON2O[C@@H](OC3CCCCC3c3ccccc3)C[C@H]3OC(=O)[C@@H]1C32 (stereo partly drawn)
> 100 µM: [8]
inactive: [1] > 100 µM | [2] > 100 µM | [3] > 100 µM | [4] > 100 µM | [5] > 100 µM | [6] > 100 µM | [7] 84.7 µM | [9] > 100 µM | [10] > 100 µM | [11] 97.9 µM | [12] > 100 µM | [13] > 100 µM | [14] > 100 µM | [15] > 100 µM | [16] > 100 µM

O=S(=O)(NC1OCCCC1I)c1ccccc1 (stereo not drawn)
> 100 µM: [8]
inactive: [1] > 100 µM | [2] > 100 µM | [3] > 100 µM | [4] > 100 µM | [5] > 100 µM | [6] > 100 µM | [7] > 100 µM | [9] 43.2 µM | [10] > 100 µM | [11] > 100 µM | [12] > 100 µM | [13] > 100 µM | [14] 44.5 µM | [15] > 100 µM | [16] > 100 µM

O=C1CC2OCC=C3CN4CCC5(C(=O)O)C(N1)C2C3CC45 (stereo not drawn)
inactive: [1] > 100 µM | [17] > 100 µM | [2] > 100 µM | [3] > 100 µM | [4] > 100 µM | [5] > 100 µM | [6] > 100 µM | [7] > 100 µM | [10] > 100 µM | [11] > 100 µM | [12] > 100 µM | [13] > 100 µM | [14] > 100 µM | [15] > 100 µM | [16] > 100 µM
> 100 µM: [8]

O=[N+]([O-])c1cccc(-c2nc(-c3ccccc3)c(-c3ccccc3)[nH]2)c1
inactive: [1] > 100 µM | [17] > 100 µM | [2] > 100 µM | [3] > 100 µM | [4] > 100 µM | [5] > 100 µM | [6] > 100 µM | [7] > 100 µM | [9] > 100 µM | [10] > 100 µM | [11] > 100 µM | [12] > 100 µM | [13] > 100 µM | [14] > 100 µM

CCCCCCCN(CCCCCCC)CC(O)c1cc2ccccc2c2cc(Br)ccc12 (stereo not drawn)
7.53 µM: [8]
inactive: [17] 39.2 µM | [2] 23.1 µM | [3] 24.7 µM | [4] > 100 µM | [5] 17.9 µM | [6] 21.1 µM | [7] 5.98 µM | [9] 24.9 µM | [10] 8.07 µM | [11] 22.6 µM | [12] 30.3 µM | [13] 43 µM | [14] 62.1 µM | [15] 34.9 µM | [16] 67 µM

CC[C@H](CO)Nc1nc(NCc2ccccc2)c2ncn(C(C)C)c2n1 [SELICICLIB]
inactive: [1] 10.7 µM | [17] 21.7 µM | [2] 82.4 µM | [3] 24.6 µM | [4] 6.97 µM | [5] 11.5 µM | [6] 5.09 µM | [7] 39.7 µM | [9] 24.2 µM | [10] 16.9 µM | [11] 5.4 µM | [13] 16.3 µM | [14] 5.78 µM | [15] 11.3 µM | [16] 20 µM
19.3 µM: [8]
